Source: patent US8022206B2 (OSI Pharmaceuticals, LLC, priority 2008, dated 2011)

How the values were obtained:
[1] = target: RON (human) (Homo sapiens, UniProt Q04912); experiment: RON (human) AlphaScreen kinase assay, Km of ATP; format: biochemical; details: AlphaScreen, Km of ATP; read-out: RON biochemical IC50
In short: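 Detection used PT66 AlphaScreen beads added in Tris pH 7.5/NaCl/EDTA/BSA buffer, read after 1 h incubation. Vehicle-only DMSO wells served as controls.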

[2] = target: MET (human) (Homo sapiens, UniProt P08581); experiment: MET (human) AlphaScreen kinase assay, Km of ATP; format: biochemical; details: AlphaScreen, Km of ATP; read-out: Met biochemical IC50
In short: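 Human MET at lot-optimised concentration in 50 mM Tris pH 7.4 buffer with 1 mM DTT, compound at 1% DMSO final; enzyme starts the reaction, 60 min at RT.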

Sequence of RON (human) (Q04912 25-1400): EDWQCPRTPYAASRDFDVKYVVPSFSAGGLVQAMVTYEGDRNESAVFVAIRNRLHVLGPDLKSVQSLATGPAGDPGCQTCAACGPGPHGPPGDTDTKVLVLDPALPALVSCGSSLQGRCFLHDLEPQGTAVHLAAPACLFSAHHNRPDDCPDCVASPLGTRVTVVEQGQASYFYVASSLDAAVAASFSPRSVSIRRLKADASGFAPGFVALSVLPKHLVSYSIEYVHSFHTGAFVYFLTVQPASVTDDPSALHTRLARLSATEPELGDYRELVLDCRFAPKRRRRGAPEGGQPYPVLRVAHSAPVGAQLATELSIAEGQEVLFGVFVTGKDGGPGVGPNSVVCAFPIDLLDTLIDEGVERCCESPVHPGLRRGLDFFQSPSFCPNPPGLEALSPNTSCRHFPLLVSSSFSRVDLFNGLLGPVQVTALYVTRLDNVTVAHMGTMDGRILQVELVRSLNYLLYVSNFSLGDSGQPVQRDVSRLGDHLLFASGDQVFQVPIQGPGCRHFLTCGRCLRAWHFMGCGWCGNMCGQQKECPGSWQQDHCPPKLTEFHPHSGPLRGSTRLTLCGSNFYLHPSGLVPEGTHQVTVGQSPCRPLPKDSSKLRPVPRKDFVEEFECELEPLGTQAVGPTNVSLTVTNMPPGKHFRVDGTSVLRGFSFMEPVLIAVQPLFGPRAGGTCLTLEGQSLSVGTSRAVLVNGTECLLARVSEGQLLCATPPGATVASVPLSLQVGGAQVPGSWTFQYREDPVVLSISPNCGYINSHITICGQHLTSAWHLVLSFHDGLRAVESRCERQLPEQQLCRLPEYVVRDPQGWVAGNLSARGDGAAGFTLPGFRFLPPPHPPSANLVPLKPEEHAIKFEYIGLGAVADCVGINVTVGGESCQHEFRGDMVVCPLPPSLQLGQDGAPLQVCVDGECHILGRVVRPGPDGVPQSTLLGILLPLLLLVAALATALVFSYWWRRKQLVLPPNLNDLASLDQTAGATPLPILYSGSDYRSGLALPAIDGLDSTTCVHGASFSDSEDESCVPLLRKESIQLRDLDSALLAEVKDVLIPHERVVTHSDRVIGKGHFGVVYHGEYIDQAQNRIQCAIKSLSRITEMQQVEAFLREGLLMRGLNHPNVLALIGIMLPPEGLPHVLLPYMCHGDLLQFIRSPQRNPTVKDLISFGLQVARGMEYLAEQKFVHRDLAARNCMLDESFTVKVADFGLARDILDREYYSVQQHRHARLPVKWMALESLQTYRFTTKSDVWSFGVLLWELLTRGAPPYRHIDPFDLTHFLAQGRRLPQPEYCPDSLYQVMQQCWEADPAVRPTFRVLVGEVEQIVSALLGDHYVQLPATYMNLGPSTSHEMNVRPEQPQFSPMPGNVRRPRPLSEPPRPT
Sequence of MET (human) (P08581 25-1390): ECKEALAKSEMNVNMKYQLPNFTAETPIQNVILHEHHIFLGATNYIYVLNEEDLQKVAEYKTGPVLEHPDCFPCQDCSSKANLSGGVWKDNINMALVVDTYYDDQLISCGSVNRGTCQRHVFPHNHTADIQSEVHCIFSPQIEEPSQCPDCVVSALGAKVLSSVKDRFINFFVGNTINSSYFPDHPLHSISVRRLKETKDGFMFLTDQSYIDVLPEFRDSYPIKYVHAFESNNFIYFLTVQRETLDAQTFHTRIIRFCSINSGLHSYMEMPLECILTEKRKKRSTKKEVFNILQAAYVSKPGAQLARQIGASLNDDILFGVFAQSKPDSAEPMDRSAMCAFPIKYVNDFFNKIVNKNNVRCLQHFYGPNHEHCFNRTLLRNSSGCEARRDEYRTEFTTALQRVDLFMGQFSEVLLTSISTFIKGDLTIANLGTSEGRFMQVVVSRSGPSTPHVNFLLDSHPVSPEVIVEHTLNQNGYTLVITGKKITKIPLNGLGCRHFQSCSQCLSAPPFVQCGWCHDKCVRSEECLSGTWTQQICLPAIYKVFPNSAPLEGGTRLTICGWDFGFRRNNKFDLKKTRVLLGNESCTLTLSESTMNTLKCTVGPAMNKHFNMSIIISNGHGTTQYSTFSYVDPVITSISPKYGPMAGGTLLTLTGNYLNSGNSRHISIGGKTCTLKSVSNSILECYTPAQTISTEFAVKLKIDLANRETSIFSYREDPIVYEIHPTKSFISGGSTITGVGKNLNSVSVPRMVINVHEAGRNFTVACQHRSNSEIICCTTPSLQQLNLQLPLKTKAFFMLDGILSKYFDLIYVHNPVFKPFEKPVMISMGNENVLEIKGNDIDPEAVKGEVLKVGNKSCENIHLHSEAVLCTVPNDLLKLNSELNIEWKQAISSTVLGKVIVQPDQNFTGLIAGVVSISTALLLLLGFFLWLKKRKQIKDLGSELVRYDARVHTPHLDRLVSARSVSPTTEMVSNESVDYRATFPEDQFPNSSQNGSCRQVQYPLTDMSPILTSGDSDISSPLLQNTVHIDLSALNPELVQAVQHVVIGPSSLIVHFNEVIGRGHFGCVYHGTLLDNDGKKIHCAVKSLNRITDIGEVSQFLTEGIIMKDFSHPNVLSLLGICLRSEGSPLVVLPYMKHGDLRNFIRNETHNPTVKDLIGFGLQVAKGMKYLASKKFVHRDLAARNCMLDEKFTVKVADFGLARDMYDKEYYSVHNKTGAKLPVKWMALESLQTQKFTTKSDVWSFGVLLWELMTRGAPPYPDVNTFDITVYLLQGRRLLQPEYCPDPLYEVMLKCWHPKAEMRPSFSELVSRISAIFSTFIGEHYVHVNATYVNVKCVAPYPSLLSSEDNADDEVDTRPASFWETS

Row | IC50 [1] [nM] | IC50 [2] [nM] | Structure (SMILES)
1 | 500 to 5000 | 500 to 5000 | Cc1ccc(-c2coc3c(O[C@H](C)c4c(Cl)ccc(F)c4Cl)c(N)ncc23)o1 [Example 117]
2 | 500 to 5000 | < 500 | CC(Oc1c(N)ncc2c(-c3cnn(C4CCNCC4)c3)coc12)c1cc(F)cc(-c2ccn[nH]2)c1 (stereo not shown) [Example 450, 7-{1-[3-Fluoro-5-(2H-pyrazol-3-yl)phenyl]ethoxy}-3-(1-piperidin-4-yl-1H-pyrazol-4-yl)furo[3,2-c]pyridin-6-ylamine]
3 | 500 to 5000 | 500 to 5000 | C[C@@H](Oc1c(N)ncc2c(-c3cscn3)coc12)c1c(Cl)ccc(F)c1Cl [Example 136, 7-[(R)-1-(2,6-Dichloro-3-fluorophenyl)-ethoxy]-3-thiazol-4-ylfuro[3,2-c]pyridin-6-ylamine]
4 | < 500 | < 500 | C[C@@H](Oc1c(N)ncc2c(C3=CCN(C(N)=O)CC3)coc12)c1c(Cl)ccc(F)c1Cl [Example 34, 4-{6-Amino-7-[(R)-1-(2,6-dichloro-3-fluorophenyl)ethoxy]-furo[3,2-c]pyridin-3-yl}-3,6-dihydro-2H-pyridine-1-carboxamide]
5 | 5000 to 20000 | 500 to 5000 | C[C@@H](Oc1c(N)ncc2c(-c3cc(C(=O)NC(C)(C)C)cs3)coc12)c1c(Cl)ccc(F)c1Cl [Example 331, 5-{6-Amino-7-[(R)-1-(2,6-dichloro-3-fluorophenyl)ethoxy]furo[3,2-c]pyridin-3-yl}thiophene-3-carboxylic acid tert-butylamide]
6 | < 500 | < 500 | C[C@@H](Oc1c(N)ncc2c(C3=CCN(C(=O)[C@H](N)CO)CC3)coc12)c1c(Cl)ccc(F)c1Cl [Example 255, (2R)-2-Amino-1-[4-{6-amino-7-[(1R)-1-(2,6-dichloro-3-fluoro-phenyl)ethoxy]furo[3,2-c]pyridin-3-yl}-3,6-dihydropyridin-1(2H)-yl]-3-hydroxypropan-1-one]
7 | 500 to 5000 | < 500 | C[C@@H](Oc1c(N)ncc2c(-c3cnn(C4CCNCC4)c3)coc12)c1cccc(F)c1 [Example 337, 7-[(R)-1-(3-fluorophenyl)ethoxy]-3-(1-piperidin-4-yl-1H-pyrazol-4-yl)-furo[3,2-c]pyridin-6-ylamine]
8 | 5000 to 20000 | 500 to 5000 | C[C@H](Oc1c(N)ncc2c(-c3cnn(C4CCNCC4)c3)coc12)c1nnc2ccc(-c3cnn(C)c3)nn12 [Example 479, 7-{(1S)-1-[6-(1-methyl-1H-pyrazol-4-yl) [1,2,4]triazolo[4,3-b]pyridazin-3-yl]ethoxy}-3-[1-(piperidin-4-yl)-1H-pyrazol-4-yl]furo[3,2-c]pyridin-6-amine]
9 | 500 to 5000 | 500 to 5000 | C[C@@H](Oc1c(N)ncc2c(C3=CCN(C(=O)C4(N)CC4)CC3)coc12)c1c(Cl)ccc(F)c1Cl [Example 23, (1-Aminocyclopropyl)-(4-{6-amino-7-[(R)-1-(2,6-dichloro-3-fluorophenyl)-ethoxy]-furo[3,2-c]pyridin-3-yl}-3,6-dihydro-2H-pyridin-1-yl)-methanone]
10 | 5000 to 20000 | 500 to 5000 | COC(=O)c1coc2c(O[C@H](C)c3c(Cl)ccc(F)c3Cl)c(N)ncc12 [Example 175, 6-Amino-7-[(R)-1-(2,6-dichloro-3-fluorophenyl)ethoxy]furo[3,2-c]pyridine-3-carboxylic acid methyl ester]
11 | 500 to 5000 | 500 to 5000 | CCNC(=O)c1cc(-c2coc3c(O[C@H](C)c4c(Cl)ccc(F)c4Cl)c(N)ncc23)cs1 [Example 314, 4-{6-Amino-7-[(R)-1-(2,6-dichloro-3-fluorophenyl)ethoxy]furo[3,2-c]pyridin-3-yl}-thiophene-2-carboxylic acid Ethylamide]
12 | 500 to 5000 | 500 to 5000 | CC(Oc1c(N)ncc2c(-c3cnn(C4CCNCC4)c3)coc12)c1cccc(C(N)=O)c1 (stereo not shown) [Example 411, 3-{1-[6-Amino-3-(1-piperidin-4-yl-1H-pyrazol-4-yl)furo[3,2-c]pyridin-7-yloxy]ethyl}benzamide]
13 | 500 to 5000 | < 500 | C[C@@H](Oc1c(N)ncc2c(C3=CCN(C(=O)CO)CC3)coc12)c1c(Cl)ccc(F)c1Cl [Example 142, 1-[4-{6-Amino-7-[(1R)-1-(2,6-dichloro-3-fluorophenyl)ethoxy]furo[3,2-c]pyridin-3-yl}-3,6-dihydropyridin-1(2H)-yl]-2-hydroxyethanone]
14 | < 500 | < 500 | C[C@@H](Oc1c(N)ncc2c(-c3ccc(C(=O)N4CCCN(C)CC4)cc3)coc12)c1c(Cl)ccc(F)c1Cl [Example 293, (4-{6-Amino-7-[(R)-1-(2,6-dichloro-3-fluorophenyl)ethoxy]furo[3,2-c]pyridin-3-yl}phenyl)-(4-methyl-[1,4]diazepan-1-yl)methanone]
15 | 500 to 5000 | 500 to 5000 | C[C@@H](Oc1c(N)ncc2c(C3=CCN(C(=O)c4ccccc4)CC3)coc12)c1c(Cl)ccc(F)c1Cl [Example 11, (4-{6-Amino-7-[(R)-1-(2,6-dichloro-3-fluorophenyl)-ethoxy]-furo[3,2-c]pyridin-3-yl}-3,6-dihydro-2H-pyridin-1-yl)-phenylmethanone]
16 | 500 to 5000 | < 500 | C[C@H](Oc1c(N)ncc2c(C3=CCN(C(N)=O)CC3)coc12)c1c(Cl)ccc(F)c1Cl [Example 456, 4-{6-Amino-7-[(S)-1-(2,6-dichloro-3-fluorophenyl)ethoxy]furo[3,2-c]pyridin-3-yl}-3,6-dihydro-2H-pyridine-1-carboxamide]
17 | < 500 | < 500 | C[C@@H](Oc1c(N)ncc2c(-c3csc(CN4CCN(C)CC4)c3)coc12)c1c(Cl)ccc(F)c1Cl [Example 304, 7-[(R)-1-(2,6-Dichloro-3-fluorophenyl)ethoxy]-3-[5-(4-methyl-piperazin-1-ylmethyl)thiophen-3-yl]-furo[3,2-c]pyridin-6-ylamine]
18 | 500 to 5000 | < 500 | C[C@@H](Oc1c(N)ncc2c(C3=CCCN(C(N)=O)C3)coc12)c1c(Cl)ccc(F)c1Cl [Example 143, 5-{6-Amino-7-[(R)-1-(2,6-dichloro-3-fluorophenyl)ethoxy]furo[3,2-c]pyridin-3-yl}-3,6-dihydro-2H-pyridine-1-carboxamide]
19 | 500 to 5000 | 500 to 5000 | C[C@@H](Oc1c(N)ncc2c(-c3ccc(C(=O)N4CCCCC4)cc3)coc12)c1c(Cl)ccc(F)c1Cl [Example 290, (4-{6-Amino-7-[(R)-1-(2,6-dichloro-3-fluorophenyl)ethoxy]furo[3,2-c]pyridin-3-yl}phenyl)piperidin-1-ylmethanone]
20 | 500 to 5000 | < 500 | C[C@@H](Oc1c(N)ncc2c(-c3ccc(CO)nc3)coc12)c1c(Cl)ccc(F)c1Cl [Example 118, (5-{6-Amino-7-[(R)-1-(2,6-dichloro-3-fluorophenyl)ethoxy]furo[3,2-c]pyridin-3-yl}pyridin-2-yl)methanol]
21 | < 500 | < 500 | Nc1ncc2c(-c3cnn(C4CCNCC4)c3)coc2c1OC/C=C/c1c(Cl)ccc(F)c1Cl [Example 356, 7-[(E)-3-(2,6-Dichloro-3-fluorophenyl)allyloxy]-3-(1-piperidin-4-yl-1H-pyrazol-4-yl)furo[3,2-c]pyridin-6-ylamine]
22 | 500 to 5000 | 500 to 5000 | C[C@@H](Oc1c(N)ncc2c(-c3cnn(C4CCN(C=O)CC4)c3)coc12)c1c(Cl)ccc(F)c1Cl [Example 277, 4-(4-{6-Amino-7-[(1R)-1-(2,6-dichloro-3-fluorophenyl)ethoxy]furo[3,2-c]pyridin-3-yl}-1H-pyrazol-1-yl)piperidine-1-carbaldehyde]
23 | 500 to 5000 | 500 to 5000 | C[C@@H](Oc1c(N)ncc2c(-c3cnn(C4CCNCC4)c3)c(-c3ccccc3)oc12)c1c(Cl)ccc(F)c1Cl [Example 170, 7-[(R)-1-(2,6-Dichloro-3-fluorophenyl)ethoxy]-2-phenyl-3-(1-piperidin-4-yl-1H-pyrazol-4-yl)-furo[3,2-c]pyridin-6-ylamine]
24 | > 20000 | 500 to 5000 | C[C@@H](Oc1c(N)ncc2ccoc12)c1nnc2ccc(-c3cnn(C)c3)nn12 [Example 470, 7-{(1R)-1-[6-(1-methyl-1H-pyrazol-4-yl) [1,2,4]triazolo[4,3-b]pyridazin-3-yl]ethoxy}furo[3,2-c]pyridin-6-amine]
25 | 500 to 5000 | 500 to 5000 | C[C@@H](Oc1c(N)ncc2c(-c3cnc(N(C)C)nc3)coc12)c1c(Cl)ccc(F)c1Cl [Example 124, 7-[(R)-1-(2,6-Dichloro-3-fluorophenyl)ethoxy]-3-(2-dimethylaminopyrimidin-5-yl)furo[3,2-c]pyridin-6-ylamine]
26 | 500 to 5000 | < 500 | C[C@@H](Oc1c(N)ncc2c(C3=CCN(C(=O)NC(C)(C)C)CC3)coc12)c1c(Cl)ccc(F)c1Cl [Example 148, 4-{6-Amino-7-[(1R)-1-(2,6-dichloro-3-fluorophenyl)ethoxy]furo[3,2-c]pyridin-3-yl}-N-tert-butyl-3,6-dihydropyridine-1(2H)-carboxamide]
27 | 500 to 5000 | < 500 | CC(C)NC(=O)c1cc(-c2coc3c(O[C@H](C)c4c(Cl)ccc(F)c4Cl)c(N)ncc23)cs1 [Example 312, 4-{6-Amino-7-[(R)-1-(2,6-dichloro-3-fluorophenyl)ethoxy]furo[3,2-c]pyridin-3-yl}thiophene-2-carboxylic acid isopropylamide]
28 | < 500 | < 500 | C[C@@H](Oc1c(N)ncc2c(C3=CCN(C(=O)C4CCN(C)CC4)CC3)coc12)c1c(Cl)ccc(F)c1Cl [Example 17, (4-{6-Amino-7-[(R)-1-(2,6-dichloro-3-fluorophenyl)-ethoxy]-furo[3,2-c]pyridin-3-yl}-3,6-dihydro-2H-pyridin-1-yl)-(1-methylpiperidin-4-yl)-methanone]
29 | 500 to 5000 | 500 to 5000 | CC(Oc1c(N)ncc2c(-c3cnn(C4CCNCC4)c3)coc12)c1cccc(-c2cn[nH]c2)c1 (stereo not shown) [Example 447]
